The nature of series [1]: Internal kinetics test (plasma concentration after oral or intravenous administration). The series is classed as in vivo. The settings on record: SD male rats fasted overnight. The method, then:
A test compound was orally or intravenously administered to SD male rats (7 to 10 weeks-age, 200 to 400 g) which had fasted overnight, and within a predetermined period of time, about 100 μL of the blood per rat was collected via the tail vein, using a heparinized capillary. The blood was centrifuged (4° C., 6,000 rpm, 10 minutes) to provide plasma. To the plasma tree-fold the amount thereof of ethanol (including an internal standard substance) was added and stored, followed by standing at −20° C. for 20 minutes and then centrifuge (4° C., 10,000 rpm, 10 minutes). The supernatant was analyzed through LC/MS/MS, and the plasma concentration of the test compound was quantified according to a relative calibration curve method.

Series [2] has as its target T1, human MCH-1R (Homo sapiens, UniProt Q99705).
T1 construct: expressed in transfected cells; host or cells: CHO-K1 (American Type Culture Collection), plasmid vector pEF/myc/cyto (Invitrogen)
Description: MCH binding inhibition test. Conditions: membranes of CHO-K1 cells expressing human MCH-1R, 50 pM [125I]MCH, 25° C., an hour; read-out: IC50 (50% inhibition concentration to specific [125I]MCH binding). Here is the method: The obtained expression vector was transfected to a host cell CHO-K1 (American Type Culture Collection) using Lipofectamine Plus Reagent (Life Technology Inc.) to provide MCH-1R expression cells.
After washing the glass filter with 50 mM Tris buffer (pH7.4) comprising 10 mM magnesium chloride, 2 mM ethylenediamine tetraacetate and 0.04% Tween-20, radiative activity on the glass filter was measured. […] MCH binding was determined.

Here are results for one compound from patent publication US7732456B2, “Pyridone derivative” (Banyu Pharmaceutical Co., Ltd., priority 2004, dated 2010).

T1 sequence (Q99705 whole entry): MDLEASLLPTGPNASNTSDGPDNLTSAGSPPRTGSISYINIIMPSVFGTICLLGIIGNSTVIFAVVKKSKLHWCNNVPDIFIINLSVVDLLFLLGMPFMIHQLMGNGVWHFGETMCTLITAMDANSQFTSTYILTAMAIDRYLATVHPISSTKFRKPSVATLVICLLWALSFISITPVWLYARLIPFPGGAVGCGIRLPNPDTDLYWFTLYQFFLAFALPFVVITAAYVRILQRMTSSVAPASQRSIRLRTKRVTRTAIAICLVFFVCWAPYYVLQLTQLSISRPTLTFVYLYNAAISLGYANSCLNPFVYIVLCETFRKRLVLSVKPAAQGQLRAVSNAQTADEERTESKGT

Broadly, the bioavailability is the share of a dose that reaches the circulation, judged against a reference dose that is usually intravenous. Read a high bioavailability as much systemic uptake. As for `O=c1cc(OCc2ccc(F)cc2)ccn1-c1ccc(OCCN2CCCC2)cc1` [Example 29, 4-(4-Fluorobenzyloxy)-1-{4-[2-(1-pyrrolidinyl)ethoxy]phenyl}-1H-pyridin-2-one], in series [1], the “half-value period in blood” value stood at 3.9 h. This compound also yielded a bioavailability in series [1] (rat, plasma, oral) of 79%. In addition, the IC50 in series [2] came out at 5.6 nM.
